Reference: patent US20110015208A1, “PHARMACEUTICAL COMPOSITIONS CONTAINING DOPAMINE RECEPTOR LIGANDS AND METHODS OF TREATMENT USING DOPAMINE RECEPTOR LIGANDS” (priority 2007, published 2011)
Entries after “also recorded” stand apart in the source; their conditions may differ. Counter-ions that a name gives are not always drawn.

Tests used:
[1] = tested on: chronic mild stress (CMS) model of depression; assay: Chronic mild stress (CMS) model of depression, sucrose consumption (Example 2); format: in vivo, rat
Text: This study evaluated the antidepressant effect of cariprazine hydrochloride in the chronic mild stress (CMS) model of depression. A comparison to the efficacy of the tricyciclic antidepressant compound imipramine was also made.
Male Wistar rats were adapted to laboratory and housing conditions for 3 weeks, followed by adoption to consumption of 1% sucrose solution for an additional 5 weeks before being separated into control and to-be-stressed groups.
Chronic stress was applied to the allocated group for seven weeks. The following stressors were used: food and/or water deprivation, cage tilting (45 degrees backwards), intermittent illumination, paired housing, soiled cage (250 mL of tap water in sawdust bedding), stroboscopic illumination (150 flashed per minute), no stress. All stressors were 10-14 hours in duration and were applied individually and continuously, once or twice weekly, during the day and at night.
Consumption of sucrose solution was measured in 1-hour tests conducted on all animals (i.e., controls and stressed) once weekly throughout the entire experiment. The tests were preceded by 14 hours of food and water deprivation. On the basis of their sucrose intakes following the initial 2 weeks of stress, both stressed and control animals received once-daily chronic (5 weeks) IP injections of vehicle (1% methyl cellulose, 1 mL/kg), cariprazine hydrochloride (0.0625, 0.25 or 1.0 mg/kg), or imipramine (10 mg/kg) as reference treatment. […] These animals were considered weak responders/non-responders and were eliminated from the analysis.

[2] = tested on: chronic mild stress (CMS) model of depression; assay: Chronic mild stress (CMS) model of depression, sucrose consumption (Example 3); format: in vivo, rat; conditions: for sucrose consumption in stressed animals compared to vehicle: 5 weeks; for time until increase in sucrose intake reached statistical significance vs Week 0: stressed animals
Text: Similar to the study described in Example 2, additional studies were undertaken to further evaluate the antidepressant effect of cariprazine hydrochloride, administered alone, or in combination with escitalopram oxalate, in a chronic mild stress model of depression
In the chronic mild stress (CMS) model, rats subjected to a variety of mild stressors for a prolonged period of time show a substantial decrease in their responsiveness to rewarding stimuli. This deficit is usually monitored by a decrease in the consumption of a 1% sucrose solution, but can also be seen in other tests, such as place preference conditioning or intracranial self-stimulation. The subsensitivity to reward appears to reflect anhedonia (inability to experience pleasure), which is a core symptom of major depressive disorders. Clinically approved antidepressants have shown activity in this animal model by reversing the effects of CMS on sucrose consumption. See, e.g., Sanchez C, Gruca P, Papp M, Behavioural Pharmacology 14, 465-470, 2003.
Male Wistar rats (Charles River, Germany) were brought into the laboratory two months before the start of the experiment. Except as described below, the animals were singly housed with food and water freely available, and were maintained on a 12-h light/dark and in a constant temperature (22±2° C.) and humidity (50±5%) conditions.
The animals were first trained to consume a 1% sucrose solution; training consisted of nine 1 h baseline tests in which sucrose was presented, in the home cage, following 14 h food and water deprivation. The sucrose intake was measured by weighing pre-weighed bottles containing the sucrose solution, at the end of the test. Subsequently, sucrose consumption was monitored, under similar conditions, at weekly intervals throughout the whole experiment.
On the basis of their sucrose intakes in the final baseline test, the animals were divided into two matched groups. One group of animals was subjected to the chronic mild stress procedure for a period of 7 consecutive weeks. Each week of stress regime consisted of: two periods of food or water deprivation, two periods of 45 degree cage tilt, two periods of intermittent illumination (lights on and off every 2 h), two periods of soiled cage (250 ml water in sawdust bedding), one period of paired housing, two periods of low intensity stroboscopic illumination (150 flashes/min), and three periods of no stress. All stressors were 10-14 h of duration and were applied individually and continuously, day and night. Control animals were housed in separate rooms and had no contact with the stressed animals. They were deprived of food and water for 14 h preceding each sucrose test, but otherwise food and water were freely available in the home cage.

[3] = tested on: basal locomotor activity of mice; assay: Open field, basal locomotor activity of mice (Example 4A); format: in vivo, mouse
[4] = cariprazine hydrochloride 1 mg/kg IP once daily
[5] = cariprazine hydrochloride 0.065 and 0.25 mg/kg IP once daily, 5 weeks
[6] = escitalopram oxalate 2 mg/kg IP once daily

Structure (SMILES) | onset of action: increases in sucrose drinking evident at ([1]; cariprazine hydrochloride 0.065 mg/kg IP once daily, stressed animals) [Week] | sedation ([1]; cariprazine hydrochloride 1 mg/kg IP) | sucrose consumption in control animals [1, 4] | sucrose intake in stressed animals [1, 4] | activity in the CMS model ([1]; cariprazine hydrochloride 1 mg/kg IP once daily (highest dose)) | sucrose drinking in controls (non-stressed) [1, 5] | sucrose drinking in stressed animals [1, 5] | magnitude of effect on sucrose drinking relative to imipramine ([1]; most active dose 0.065 mg/kg IP vs imipramine 10 mg/kg IP) | sucrose consumption in stressed animals compared to vehicle ([2]; cariprazine hydrochloride 0.01 mg/kg alone, IP once daily) | sucrose consumption in stressed animals compared to vehicle ([2]; cariprazine hydrochloride 0.03 mg/kg alone, IP once daily) | time until increase in sucrose intake reached statistical significance vs Week 0 ([2]; cariprazine hydrochloride 0.03 mg/kg alone, IP once daily, hydrochloride) | sucrose consumption in stressed animals compared to vehicle ([2]; cariprazine hydrochloride 0.065 mg/kg IP once daily) | time until increase in sucrose intake reached statistical significance vs Week 0 ([2]; cariprazine hydrochloride 0.065 mg/kg IP once daily, hydrochloride) | magnitude of action relative to escitalopram oxalate ([2]; cariprazine hydrochloride alone, full recovery at the end of treatment period) | sucrose consumption in stressed animals compared to vehicle [2, 6] | time until increase in sucrose intake reached statistical significance vs Week 0 [2, 6] | effect on basal activity compared to water-treated mice ([3]; escitalopram oxalate 0.5, 2.0 and 5.0 mg/kg oral) | Total Distance Traveled [mean ± SEM] ([3]; test condition water, 2.0 mg/kg oral, 60 min pretreatment) [cm/60 min]
CN(C)C(=O)N[C@H]1CC[C@H](CCN2CCN(c3cccc(Cl)c3Cl)CC2)CC1 [Cariprazine hydrochloride, trans-4-{2-[4-(2,3-dichlorophenyl)-piperazin-1-yl]-ethyl}-N,N-dimethylcarbamoyl-cyclohexylamine hydrochloride] | 1 | strongly sedative dose | significantly decreased | did not change | inactive | without any significant effect | dose-dependently increased sucrose drinking | greater than that of imipramine | significantly decreased | gradually increased | after four weeks of treatment; also recorded: three weeks | gradually increased | after the first week of treatment; also recorded: following the first week of administration | comparable to that of escitalopram oxalate | – | – | – | –
CN(C)CCC[C@@]1(c2ccc(F)cc2)OCc2cc(C#N)ccc21 [Escitalopram oxalate, 1-[3-(dimethyl-amino)propyl]-1-(p-fluorophenyl)-5-phthalancarbonitrile] | – | – | – | – | – | – | – | – | – | – | – | – | – | – | gradually increased; also recorded: fully reversed | after three weeks of treatment | Neither valproate nor escitalopram oxalate (0.5, 2.0, and 5.0 mg/kg) had a significant effect | 5939 ± 369
